Patent publication US11739100B2, “2,3-dihydro-1h-imidazo{1,2-a}pyrimidin-5-one and this 1,2,3,4-tetrahydropyrimido{1,2-a}pyrimidin-6-one derivatives comprising a substituted morpholine, preparation thereof and pharmaceutical use thereof” (SANOFI, priority 2012, dated 2023)

Target: T1, recombinant Vps34 (Homo sapiens, UniProt Q8NEB9)
T1 construct: purchased Invitrogen PV5126
Assay: Phosphorylation of phosphatidylinositol (PI) by Vps34 in vitro, ADP detected by TR-FRET (HTRF Transcreener ADP)
Type: biochemical
Conditions: 10 μM ATP, 55 μg/ml PI, approximately 3 nM Vps34, 1 hour at ambient temperature; absolute IC50, mean of two independent experiments; read-out: IC50 activity range

T1 sequence (Q8NEB9 whole entry): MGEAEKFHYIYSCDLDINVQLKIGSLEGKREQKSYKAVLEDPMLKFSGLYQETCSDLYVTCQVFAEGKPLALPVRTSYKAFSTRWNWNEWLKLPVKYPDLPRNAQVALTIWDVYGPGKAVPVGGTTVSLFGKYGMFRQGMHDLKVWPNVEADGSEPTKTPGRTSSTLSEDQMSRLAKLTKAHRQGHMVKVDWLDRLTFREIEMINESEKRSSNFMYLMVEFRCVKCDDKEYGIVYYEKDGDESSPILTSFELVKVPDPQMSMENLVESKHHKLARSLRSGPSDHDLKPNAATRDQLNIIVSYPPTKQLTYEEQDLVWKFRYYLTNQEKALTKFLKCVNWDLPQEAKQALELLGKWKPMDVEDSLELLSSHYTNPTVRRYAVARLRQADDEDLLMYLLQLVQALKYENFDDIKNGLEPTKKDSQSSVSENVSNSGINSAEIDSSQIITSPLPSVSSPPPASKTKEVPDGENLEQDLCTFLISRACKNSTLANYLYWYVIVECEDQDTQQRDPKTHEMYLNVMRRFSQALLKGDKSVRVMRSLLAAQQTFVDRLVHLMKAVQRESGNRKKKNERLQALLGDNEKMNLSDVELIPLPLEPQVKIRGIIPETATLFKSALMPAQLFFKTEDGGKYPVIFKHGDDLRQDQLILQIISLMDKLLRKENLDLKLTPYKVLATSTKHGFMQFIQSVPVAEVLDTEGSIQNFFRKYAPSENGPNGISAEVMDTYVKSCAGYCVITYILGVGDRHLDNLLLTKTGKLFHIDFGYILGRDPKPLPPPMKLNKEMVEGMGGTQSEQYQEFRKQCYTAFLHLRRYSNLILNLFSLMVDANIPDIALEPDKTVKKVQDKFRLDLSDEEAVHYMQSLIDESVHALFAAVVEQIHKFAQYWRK

Row | SMILES | IC50 [µM]
1 | C[C@@H]1COCCN1c1nc2n(c(=O)c1F)[C@@H](C(F)(F)F)CCN2Cc1ncco1 [Example 129, (R)-3-Fluoro-2-((R)-3-methylmorpholin-4-yl)-9-oxazol-2-ylmethyl-6-trifluoromethyl-6,7,8,9-tetrahydro-pyrimido[1,2-a]-pyrimidin-4-one] | < 0.01
2 | C[C@@H]1COCCN1c1cc(=O)n2c(n1)N(Cc1cn3ccccc3n1)[C@H](C(F)(F)F)CC2 [Example 64, (S)-9-Imidazo[1,2-a]-pyridin-2-ylmethyl-2-((R)-3-methyl-morpholin-4-yl)-8-trifluoromethyl-6,7,8,9-tetrahydro-pyrimido[1,2-a]-pyrimidin-4-one] | > 0.1
3 | C[C@@H]1COCCN1c1cc(=O)n2c(n1)N(CC(F)C1CC1)[C@H](C(F)(F)F)CC2 (single isomer, unassigned) [Example 325] | < 0.01
4 | CCC(CC)C(=O)CN1c2nc(N3CCOC[C@H]3C)cc(=O)n2CC[C@H]1C(F)(F)F [Example 281, (S)-9-(3-Ethyl-2-oxo-pentyl)-2-((R)-3-methylmorpholin-4-yl)-8-trifluoromethyl-6,7,8,9-tetrahydro-pyrimido[1,2-a]-pyrimidin-4-one] | < 0.01
5 | C[C@@H]1COCCN1c1cc(=O)n2c(n1)N(CC(=O)N1CC3(CCO3)C1)[C@H](C(F)(F)F)CC2 [Example 330, (S)-2-((R)-3-Methyl-morpholin-4-yl)-9-[2-(1-oxa-6-aza-spiro[3.3]hept-6-yl)-2-oxoethyl]-8-trifluoromethyl-6,7,8,9-tetrahydropyrimido-[1,2-a]pyrimidin-4-one] | 0.01 to 0.1
6 | C[C@@H]1COCCN1c1cc(=O)n2c(n1)N(CC(=O)OC(C)(C)C)[C@H](C(F)(F)F)CC2 [Example 260, [(S)-8-((R)-3-Methyl-morpholin-4-yl)-6-oxo-2-trifluoromethyl-3,4-dihydro-2H,6H-pyrimido[1,2-a]-pyrimidin-1-yl]acetic acid tert-butyl ester] | < 0.01
7 | C[C@@H]1COCCN1c1cc(=O)n2c(n1)N(Cc1cnco1)CC[C@@H]2C(F)(F)F [Example 117, (R)-2-((R)-3-Methyl-morpholin-4-yl)-9-oxazol-5-ylmethyl-6-trifluoromethyl-6,7,8,9-tetrahydro-pyrimido[1,2-a]-pyrimidin-4-one] | 0.01 to 0.1
8 | CC(C)c1nc(CN2c3nc(N4CCOC[C@H]4C)cc(=O)n3CC[C@H]2C(F)(F)F)no1 [Example 201, (S)-9-(5-Isopropyl-[1,2,4]oxadiazol-3-yl-methyl)-2-((R)-3-methylmorpholin-4-yl)-8-trifluoromethyl-6,7,8,9-tetrahydro-pyrimido[1,2-a]-pyrimidin-4-one] | < 0.01
9 | CC1CN(c2cc(=O)n3c(n2)N(CC(=O)c2ccccn2)[C@H](C(F)(F)F)CC3)CCO1 (single isomer, unassigned) [Example 175] | > 0.1
10 | CO/N=C(/CN1c2nc(N3CCOC[C@H]3C)cc(=O)n2CC[C@H]1C(F)(F)F)C1CC1 (single isomer, unassigned) [Example 306] | < 0.01
11 | C[C@@H]1COCCN1c1nc2n(c(=O)c1F)CC[C@@H](C(F)(F)F)N2Cc1ncco1 [Example 42, (S)-3-Fluoro-2-((R)-3-methylmorpholin-4-yl)-9-oxazol-2-ylmethyl-8-trifluoromethyl-6,7,8,9-tetrahydro-pyrimido[1,2-a]-pyrimidin-4-one] | < 0.01
12 | C[C@@H]1COCCN1c1cc(=O)n2c(n1)N(c1ccnc(Cl)c1)[C@H](C(F)(F)F)CC2 [Example 79, (S)-9-(2-Chloro-pyridin-4-yl)-2-((R)-3-methylmorpholin-4-yl)-8-trifluoromethyl-6,7,8,9-tetrahydro-pyrimido[1,2-a]-pyrimidin-4-one] | < 0.01
13 | C[C@@H]1COCCN1c1cc(=O)n2c(n1)N(CC(=O)C1CCOC1)[C@H](C(F)(F)F)CC2 (stereo partly drawn) [Example 269, (S)-2-((R)-3-Methyl-morpholin-4-yl)-9-[2-oxo-2-(tetrahydro-furan-3-yl)ethyl]-8-trifluoromethyl-6,7,8,9-tetrahydro-pyrimido[1,2-a]-pyrimidin-4-one] | 0.01 to 0.1
14 | Cc1nnsc1CN1c2nc(N3CCOC[C@H]3C)cc(=O)n2CC[C@H]1C(F)(F)F [Example 125, (S)-2-((R)-3-Methyl-morpholin-4-yl)-9-(4-methyl-[1,2,3]thiadiazol-5-yl-methyl)-8-trifluoromethyl-6,7,8,9-tetrahydro-pyrimido[1,2-a]-pyrimidin-4-one] | 0.01 to 0.1
15 | CC(C)CC(=O)CN1c2nc(N3CCOC[C@H]3C)c(F)c(=O)n2CC[C@H]1C(F)(F)F [Example 280, (S)-3-Fluoro-2-((R)-3-methylmorpholin-4-yl)-9-(4-methyl-2-oxo-pentyl)-8-trifluoromethyl-6,7,8,9-tetrahydro-pyrimido[1,2-a]-pyrimidin-4-one] | < 0.01
16 | C[C@@H]1COCCN1c1cc(=O)n2c(n1)N(CC(=O)C1CC1)[C@H](C(F)(F)F)CC2 [Example 241, (S)-9-(2-Cyclopropyl-2-oxoethyl)-2-((R)-3-methylmorpholin-4-yl)-8-trifluoromethyl-6,7,8,9-tetrahydro-pyrimido[1,2-a]-pyrimidin-4-one] | < 0.01
17 | CCOC(=O)CN1c2nc(N3CCOC[C@H]3C)cc(=O)n2CC[C@H]1C(F)(F)F [Example 14, [(S)-8-((R)-3-Methyl-morpholin-4-yl)-6-oxo-2-trifluoromethyl-3,4-dihydro-2H,6H-pyrimido[1,2-a]-pyrimidin-1-yl]acetic acid ethyl ester] | < 0.01
18 | C[C@@H]1COCCN1c1nc2n(c(=O)c1F)C[C@@](C)(C(F)(F)F)N2Cc1ccnc(Cl)c1 [Example 184, (S)-1-(2-Chloro-pyridin-4-ylmethyl)-6-fluoro-2-methyl-7-((R)-3-methylmorpholin-4-yl)-2-trifluoromethyl-2,3-dihydro-1H-imidazo[1,2-a]-pyrimidin-5-one] | < 0.01
19 | CC(C)Oc1cc(N2CC[C@H](C(F)(F)F)n3c2nc(N2CCOC[C@H]2C)cc3=O)ccn1 [Example 114, (R)-9-(2-Isopropoxy-pyridin-4-yl)-2-((R)-3-methylmorpholin-4-yl)-6-trifluoromethyl-6,7,8,9-tetrahydro-pyrimido[1,2-a]-pyrimidin-4-one] | < 0.01
20 | C[C@@H]1COCCN1c1cc(=O)n2c(n1)N(Cc1ccnc(Cl)c1)CC[C@@H]2C(F)(F)F [Example 112, (R)-9-(2-Chloro-pyridin-4-ylmethyl)-2-((R)-3-methyl-morpholin-4-yl)-6-trifluoromethyl-6,7,8,9-tetrahydro-pyrimido[1,2-a]-pyrimidin-4-one] | < 0.01
21 | C[C@@H]1COCCN1c1nc2n(c(=O)c1F)CC[C@@H](C(F)(F)F)N2CC(=O)N1CCOCC1 [Example 235, (S)-3-Fluoro-2-((R)-3-methylmorpholin-4-yl)-9-(2-morpholin-4-yl-2-oxoethyl)-8-trifluoromethyl-6,7,8,9-tetrahydro-pyrimido[1,2-a]-pyrimidin-4-one] | 0.01 to 0.1
22 | COC(CN1c2nc(N3CCOC[C@H]3C)cc(=O)n2CC[C@H]1C(F)(F)F)C(C)C (single isomer, unassigned) [Example 288] | < 0.01
23 | C[C@@H]1COCCN1c1cc(=O)n2c(n1)N(Cc1ccc(F)nc1)[C@H](C(F)(F)F)CC2 [Example 24, (S)-9-(6-Fluoropyridin-3-ylmethyl)-2-((R)-3-methylmorpholin-4-yl)-8-trifluoromethyl-6,7,8,9-tetrahydro-pyrimido[1,2-a]-pyrimidin-4-one] | < 0.01
